From patent US6214859A, “Ethylamine derivatives” (Fujimoto Brothers Co., Ltd., priority 1997, dated 2001)

Legend:
mice = assay: Toxicity test in mice in the single administration; type: in vivo, mouse; details: 50 mg/kg s.c., two weeks
Protocol: After the compounds of Examples 3, 25, 27 and 28 were administered subcutanously to mice, general symptoms of the mice were observed every day for two weeks.

[1] = tested on: dopamine release, striatum; assay: Release of biogenic amines from brain tissue: dopamine, striatum; type: in vivo, Wistar rats
[2] = tested on: dopamine release, substantia nigra; assay: Release of biogenic amines from brain tissue: dopamine, substantia nigra; type: in vivo, Wistar rats
[3] = tested on: noradrenaline release, locus coeruleus; assay: Release of biogenic amines from brain tissue: noradrenaline, locus coeruleus; type: in vivo, Wistar rats
[4] = tested on: dopamine release, tuberculum olfactorium; assay: Release of biogenic amines from brain tissue: dopamine, tuberculum olfactorium; type: in vivo, Wistar rats
serotonin release, raphe = assay: Release of biogenic amines from brain tissue: serotonin, raphe; type: in vivo, Wistar rats
[5] = tested on: rats reduced learning ability by tetrabenazine; assay: Conditioned avoidance task in the shuttle box (tetrabenazine-treated rats); type: in vivo, rat; details: tetrabenazine 1 mg/kg s.c., significance and direction
In short: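 Male and female rats (200–220 g) were trained in a shuttle box (light/buzzer conditioned stimulus, 100 trials/day for 5 days). Tetrabenazine 1 mg/kg s.c. was given 1 h before testing, with compound at 1, 2, 2.5 or 5 mg/kg s.c. given together with tetrabenazine. CARs, EFs and IRs were counted automatically and analysed by multi-way ANOVA.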

CCCNC(CCC)Cc1ccc2ccccc2c1.Cl (stereo not drawn) [Compound No. 3, 1-(2-Naphthyl)-2-propylaminopentane Hydrochloride]
survival (mice): all the mice survived
Release of dopamine, striatum ([1]; 0.25 mg/kg s.c.): 3.4 ± 0.03 nmol/g tissue, for 20 min
Release of dopamine, striatum ([1]; 1.00 mg/kg s.c., Hydrochloride): 3.9 ± 0.12 nmol/g tissue, for 20 min
Release of dopamine, striatum ([1]; 5.00 mg/kg s.c.): 3.8 ± 0.04 nmol/g tissue, for 20 min
Release of dopamine, substantia nigra ([2]; 0.25 mg/kg s.c.): 4.9 ± 0.07 nmol/g tissue, for 20 min
Release of dopamine, substantia nigra ([2]; 1.00 mg/kg s.c., Hydrochloride): 4.5 ± 0.07 nmol/g tissue, for 20 min
Release of dopamine, substantia nigra ([2]; 5.00 mg/kg s.c.): 9.0 ± 0.50 nmol/g tissue, for 20 min
Release of noradrenaline, locus coeruleus ([3]; 0.25 mg/kg s.c.): 4.4 ± 0.10 nmol/g tissue, for 20 min
Release of noradrenaline, locus coeruleus ([3]; 1.00 mg/kg s.c., Hydrochloride): 2.6 ± 0.10 nmol/g tissue, for 20 min
Release of noradrenaline, locus coeruleus ([3]; 5.00 mg/kg s.c.): 2.2 ± 0.11 nmol/g tissue, for 20 min
Release of dopamine, tuberculum olfactorium ([4]; 0.25 mg/kg s.c.): 4.3 ± 0.09 nmol/g tissue, for 20 min
Release of dopamine, tuberculum olfactorium ([4]; 1.00 mg/kg s.c., Hydrochloride): 5.2 ± 0.12 nmol/g tissue, for 20 min
Release of dopamine, tuberculum olfactorium ([4]; 5.00 mg/kg s.c.): 5.1 ± 0.39 nmol/g tissue, for 20 min
Release of serotonin, raphe (serotonin release, raphe; 0.25 mg/kg s.c.): 0.958 ± 0.03 nmol/g tissue, for 20 min
Release of serotonin, raphe (serotonin release, raphe; 5.00 mg/kg s.c.): 1.215 ± 0.14 nmol/g tissue, for 20 min
Escape Failures (EFs) ([5]; 1 mg/kg s.c.): **** .dwnarw.
Condition Avoidance Reflex (CARs) ([5]; 1 mg/kg s.c., Hydrochloride): **** .Arrow-up bold.
Condition Avoidance Reflex (CARs) ([5]; 2 mg/kg s.c.): **** .Arrow-up bold.
Escape Failures (EFs) ([5]; 2 mg/kg s.c.): **** .dwnarw.
Condition Avoidance Reflex (CARs) ([5]; 2.5 mg/kg s.c.): **** .Arrow-up bold.
Escape Failures (EFs) ([5]; 2.5 mg/kg s.c.): *** .dwnarw.
Intersignal Reactions (IRs) ([5]; 2.5 mg/kg s.c.): * .dwnarw.
Condition Avoidance Reflex (CARs) ([5]; 5 mg/kg s.c.): **** .Arrow-up bold.
Escape Failures (EFs) ([5]; 5 mg/kg s.c.): **** .dwnarw.
